How the values were obtained:
Type in all cases: cell-based
THP-1 cells = assay: Cell viability assay (MTT); conditions: compound 5 μM, 18 hours incubation; normalized to DMSO as 100%; mean
Description: THP-1 cells were plated in 96-well plates (10^5 cells/well) in 100 μL RPMI supplemented with 10% FBS, 100 U/mL penicillin and 100 μg/ml streptomycin. Compounds were dissolved in DMSO at 1 mM stock solution and were further diluted to 10 μM in the assay medium. 100 μL of this solution was added to the cells to obtain a final compound concentration of 5 μM ([…]). After 18 hours incubation, a solution of MTT in assay media (0.5 mg/mL) was added to each well and further incubated for 4 to 6 hours, followed by addition of cell lysis buffer (15% w/v SDS and 0.12% v/v 12N HCl aqueous solution), incubated overnight, and then absorbance measured at 570 nm using 650 nm as reference using Tecan Infinite M200 plate reader.
Cell Viability Assay. THP-1 cells were plated in 96-well plates (10^5 cells/well) in 100 μL RPMI supplemented with 10% FBS, 100 U/mL penicillin, and 100 μg/mL streptomycin. Compounds were dissolved in DMSO at 1 mM stock solution and were further diluted to 10 μM in the assay medium. 100 μL of this solution was added to the cells to obtain a final compound concentration of 5 μM ([…]). After 18 h incubation, a solution of MTT in assay media (0.5 mg/mL) was added to each well and further incubated for 4-6 hours, followed by addition of cell lysis buffer (15% w/v SDS and 0.12% v/v 12 N HCl aqueous solution), incubation overnight, and then absorbance was measured at 570 nm using 650 nm as reference using Tecan Infinite M200 plate reader.

ISRE = assay: Measurement of ISRE activity in ISRE-bla THP-1 cells (FRET, IFN-α as primary stimulus); conditions: compound 5 μM + IFN-α 100 U/mL, 16 hours, two point normalized: compound 1 + IFN-α = 200%, IFN-α = 100%, mean; for activity at 5 µM: Homo sapiens, THP-1, read-out: ISRE % Activation
Description: ISRE-bla THP-1 cells were plated in 96-well plates at 5×10^4 cells/well in 50 μl RPMI supplemented with 10% dialyzed FBS (Atlanta Biologicals, Inc., GA), 0.1 mM nonessential amino acids, 1 mM sodium pyruvate, 100 U/mL penicillin and 100 μg/ml streptomycin. Type I IFN-α (R&D Systems, #11200-2) solution was prepared in assay medium at a concentration of 200 U/mL Tested compounds were dissolved in DMSO at 1 mM and were further diluted in the IFN-α solution to a final concentration of 10 μM. 50 μL of this solution was then transferred to the plated cells to obtain a final concentration of IFN-α at 100 U/mL and compound at 5 μM ([…]), The cells were incubated for 16 hours, after which 20 μL of 6×LiveBLAzer™ FRET B/G Substrate (CCF4-AM) mixture (prepared according to the manufacturer's instructions) was added to each well, Plates were incubated at room temperature in the dark for 3 hours. Fluorescence was measured on a Tecan Infinite M200 plate reader at an excitation wavelength of 405 nm, and emission wavelengths of 465 nm and 535 nm. Background values (cell free wells at the same fluorescence wavelength) were subtracted from the raw fluorescence intensity values and the emission ratios were calculated as the ratio of background subtracted fluorescence intensities at 465 nm to background subtracted fluorescence intensities at 535 nm. The ISRE activity values for these compounds were 2-point normalized to yield activity of compound 1+IFN-α as 200% and activity for IFN-α as 100%.
Measurement of ISRE Activity in ISRE-bla THP-1 Cells. ISREbla THP-1 cells were plated in 96-well plates at 5×10^4 cells/well in 50 μL of RPMI supplemented with 10% dialyzed FBS (Atlanta Biologicals, Inc., GA), 0.1 mM nonessential amino acids, 1 mM sodium pyruvate, 100 U/mL penicillin, and 100 μg/mL streptomycin. Type I IFN-α (R&D Systems, no. 11200-2) solution was prepared in assay medium at a concentration of 200 U/mL. Tested compounds were dissolved in DMSO at 1 mM and were further diluted in the IFN-α solution to a final concentration of 10 μM. 50 μL of this solution was then transferred to the plated cells to obtain a final concentration of IFN-α at 100 U/mL and compound at 5 μM ([…]). The cells were incubated for 16 hours, after which 20 μL of 6×LiveBLAzer FRET B/G substrate (CCF4-AM) mixture (prepared according to the manufacturer's instructions) was added to each well. Plates were incubated at room temperature in the dark for 3 hours. Fluorescence was measured on a Tecan Infinite M200 plate reader at an excitation wavelength of 405 nm and emission wavelengths of 465 and 535 nm. Background values (cell free wells at the same fluorescence wavelength) were subtracted from the raw fluorescence intensity values and the emission ratios were calculated as the ratio of background subtracted fluorescence intensities at 465 nm to background subtracted fluorescence intensities at 535 nm. The ISRE activity values for these compounds were two-point normalized to yield activity of compound 1+IFN-α as 200% and activity for IFN-α as 100%.

NF-κB = assay: Measurement of NF-κB activation using THP1-Blue NF-κB cells (SEAP reporter, LPS as primary stimulus); conditions: compound 5 μM + LPS, 20 hour incubation; two point normalized: compound 1 + LPS = 200%, LPS = 100%; mean
Description: THP1-Blue™ NF-κB cells were plated in 96-well plates at 10^5 cells/well in 100 μl RPMI supplemented with 10% fetal bovine serum (FBS, Omega Scientific, Inc., Tarzana, Calif.), 100 U/mL penicillin, 100 μg/ml streptomycin (Thermo Fisher Scientific) and Normocin (Invivogen). LPS was prepared in assay medium at a concentration of 20 μg/mL. Tested compounds were dissolved in DMSO at 1 mM as a stock solution and were further diluted in the LPS solution to a final concentration of 10 μM. 100 μL of this solution was then transferred to the plated cells to obtain a final concentration of LPS at 10 μg/mL and compound at 5 μM ([…]). The culture supernatants were harvested after a 20 hour incubation period, SEAP activity in the culture supernatants was determined by a colorimetric assay using QuantiBlue (Invivogen). Plate absorbance was read at 630 nm using a Tecan Infinite M200 plate reader (Männedorf, Switzerland). The SEAP concentration was directly proportional to NF-κB activity, which was 2-point normalized to yield activity of compound 1+LPS as 200% and activity for LPS as 100%.
Measurement of NF-κB Activation Using THP1-Blue NF-κB Cells. THP1-Blue NF-κB cells were plated in 96-well plates at 10^5 cells/well in 100 μL of RPMI supplemented with 10% fetal bovine serum (FBS, Omega Scientific, Inc., Tarzana, Calif.), 100 U/mL penicillin, 100 μg/mL streptomycin (Thermo Fisher Scientific), and Normocin (Invivogen). LPS was prepared in assay medium at a concentration of 20 μg/mL. Tested compounds were dissolved in DMSO at 1 mM as a stock solution and were further diluted in the LPS solution to a final concentration of 10 μM. 100 μL of this solution was then transferred to the plated cells to obtain a final concentration of LPS at 10 μg/mL and compound at 5 μM ([…]). The culture supernatants were harvested after a 20 hours incubation period. SEAP activity in the culture supernatants was determined by a colorimetric assay using QuantiBlue (Invivogen). Plate absorbance was read at 630 nm using a Tecan Infinite M200 plate reader (Mannedorf, Switzerland). The SEAP concentration was directly proportional to NF-κB activity, which was two-point normalized to yield activity of compound 1+LPS as 200% and activity for LPS as 100%.

| Compound | MTT % Viability (THP-1 cells) [%] | activity at 5 µM (ISRE) [%] | activity at 5 µM (NF-κB) [%] | ISRE % Activation (ISRE) [%] | NF-κB % Activation (NF-κB) [%] |
| --- | --- | --- | --- | --- | --- |
| CCOc1ccc(S(=O)(=O)Nc2cc(OC)c([N+](=O)[O-])cc2OC)cc1 [Compound 9, N-(2,5-dimethoxy-4-nitrophenyl)-4-ethoxybenzenesulfonamide] | 79.2 | 110 | 133 |  |  |
| CCOc1ccc(S(=O)(=O)Nc2cc(OC)c(N)cc2OC)cc1 [Compound 10, N-(4-amino-2,5-dimethoxyphenyl)-4-ethoxybenzenesulfonamide] | 92.2 | 102 | 101 |  |  |
| CCCCOc1ccc(S(=O)(=O)Nc2cc(OC)c(Cl)cc2OC)cc1 [Compound 14, 4-Butoxy-N-(4-chloro-2,5-dimethoxyphenyl)benzenesulfonamide] | 95.3 | 106 | 101 |  |  |
| COc1cc(NS(=O)(=O)c2ccc([N+](=O)[O-])cc2)c(OC)cc1Cl [Compound 17, N-(4-chloro-2,5-dimethoxyphenyl)-4-nitrobenzenesulfonamide] | 97.4 | 103 | 101 |  |  |
| COc1cc(NS(=O)(=O)c2ccc(N)cc2)c(OC)cc1Cl [Compound 18, 4-Amino-N-(4-chloro-2,5-dimethoxyphenyl)benzenesulfonamide] | 96.0 | 103 | 101 |  |  |
| COc1cc(NS(=O)(=O)c2ccc(C#N)cc2)c(OC)cc1Cl [Compound 19, N-(4-chloro-2,5-dimethoxyphenyl)-4-cyanobenzenesulfonamide] | 102.9 | 106 | 97 |  |  |
| COc1cc(NS(=O)(=O)c2ccc(CNC(=O)OC(C)(C)C)cc2)c(OC)cc1Cl [Compound 20, tert-butyl (4-(N-(4-chloro-2,5-dimethoxyphenyl)sulfamoyl)benzyl) carbamate] | 109.2 |  |  | 101 | 100 |
| COc1cc(NS(=O)(=O)c2ccc(CN)cc2)c(OC)cc1Cl [Compound 21, 4-(aminomethyl)-N-(4-chloro-2,5-dimethoxyphenyl)benzenesulfonamide] | 97.0 | 111 | 103 |  |  |
| COC(=O)c1ccc(S(=O)(=O)Nc2cc(OC)c(Cl)cc2OC)cc1 [Compound 26, Methyl 4-(N-(4-chloro-2,5-dimethoxyphenyl)sulfamoyl)benzoate] | 74.4 | 202 | 191 |  |  |
| CCCN(c1cc(OC)c(Cl)cc1OC)S(=O)(=O)c1ccc(OCC)cc1 [Compound 34, N-(4-chloro-2,5-dimethoxyphenyl)-4-ethoxy-N-propylbenzenesulfonamide] | 71.6 | 199 | 227 |  |  |
| CCCCN(c1cc(OC)c(Cl)cc1OC)S(=O)(=O)c1ccc(OCC)cc1 [Compound 35, N-(4-chloro-2,5-dimethoxyphenyl)-4-ethoxy-N-butylbenzenesulfonamide] | 77.7 | 156 | 192 |  |  |
| CCCCCN(c1cc(OC)c(Cl)cc1OC)S(=O)(=O)c1ccc(OCC)cc1 [Compound 36, N-(4-chloro-2,5-dimethoxyphenyl)-4-ethoxy-N-pentylbenzenesulfonamide] | 72.9 | 105 | 135 |  |  |
| CCCCCCN(c1cc(OC)c(Cl)cc1OC)S(=O)(=O)c1ccc(OCC)cc1 [Compound 37, N-(4-chloro-2,5-dimethoxyphenyl)-4-ethoxy-N-hexylbenzenesulfonamide] | 95.2 | 99 | 81 |  |  |
| CCCCCCCN(c1cc(OC)c(Cl)cc1OC)S(=O)(=O)c1ccc(OCC)cc1 [Compound 38, N-(4-chloro-2,5-dimethoxyphenyl)-4-ethoxy-N-heptylbenzenesulfonamide] | 90.4 | 95 | 108 |  |  |
| CCCCCCCCCCCCN(c1cc(OC)c(Cl)cc1OC)S(=O)(=O)c1ccc(OCC)cc1 [Compound 39, N-(4-chloro-2,5-dimethoxyphenyl)-4-ethoxy-N-dodecylbenzenesulfonamide] | 93.0 | 100 | 97 |  |  |
| C#CCN(c1cc(OC)c(Cl)cc1OC)S(=O)(=O)c1ccc(OCC)cc1 [Compound 42, N-(4-chloro-2,5-dimethoxyphenyl)-4-ethoxy-N-(prop-2-yn-1-yl) benzenesulfonamide] | 72.0 |  |  | 213 | 232 |
| CCOc1ccc(S(=O)(=O)N(CCCN)c2cc(OC)c(N=[N+]=[N-])cc2OC)cc1 [Compound 63, N-(3-aminopropyl)-N-(4-azido-2,5-dimethoxyphenyl)-4-ethoxybenzenesulfonamide] | 68.9 |  |  |  |  |
